One experiment relates to VCAM-1. Kind of experiment: VCAM-1 expression in endothelial cells. Type of experiment: cell-based, human. The protocol: (§1) Fluorescence activated cytometry sorting (FACS) analysis: Treated cells were dissociated into single cell suspensions using 0.25% trypsin-EDTA and resuspended in a FACS buffer (Hank's buffered solution containing 5% FBS). Aliquots of cell suspensions were incubated with ICAM-1 antibody (R&D Systems) for 20 min on ice, washed twice with FACS buffer, and incubated with secondary antibody (fluorescein-5-isothiocyanate- or phycoerytherin-conjugated, Chemicon) for 20 min on ice in the dark. Then samples were washed again, fixed in 1% paraformaldehyde and analyzed by FACS (Calibur, Becton-Dickinson) using CellQuest software. The fluorescence intensity of ICAM-1 and forward cell scattering of 30,000 cells were measured and the geometric means calculated from histograms were shown. In some studies, HAEC were transfected with either BMP4 cloned in a bi-cistronic pAdTrack CMV vector or an empty vector, both expressing green fluorescent protein (GFP), using Lipofectamine 2000. In these experiments, ICAM-1 expression was measured in the red phycoerytherin channel, while the green channel was used to monitor the […] expression-GFP expression was determined by FACS analysis and fluorescence microscopy (20-30% transfection efficiency). Because expression of GFP was similar among different treatment groups within the same experiment, it was unnecessary to normalize ICAM-1 expression data to GFP level. Human recombinant noggin was purchased from R&D Systems and used in all experiments at 50 ng/ml (Dale, L., and Jones, C. M. (1999) Bioessays 21, 751-760; Zimmerman, L. B., et al. (1996) Cell 86, 599-606; Brunei, L. J., et al. (1998) Science 280, 1455-1457).
HAEC treated with OS, BMP4 or static condition were analyzed by FACS using antibodies specific to VCAM-1 (C) and E-selectin (D) as described in panel A using TNFa (1OOU/ml, for 2 hr) as a positive control.

The next experiment deals with ICAM-1. Description: ICAM-1 surface expression by FACS analysis in HAEC. Type of experiment: cell-based, human. The protocol: Endothelial cells: Mouse aortic endothelial cells (MAEC) were cultured and used at passages 4-8 as described (Cai, H., et al. (2002) J Bio Chem 107, 48311-48317). Human aortic endothelial cells (HAEC) purchased from Clonetics were cultured using EGM-2 bullet kit (Clonetics) and used at passages 4-8. Alternatively, endothelial cells obtained from the thoracic aortas of C57/BL6 control (MAE-wt) and p47^phox-null mice (MAE-p47^−/−) were isolated and cultured as described previously (Hwang, J. et al. (2003) J Biol Chem 278:47291-8), and used between passages 4-10.
Shear stress studies: Confluent endothelial monolayers grown in 100 mm tissue culture dishes were exposed to an arterial level of uni-directional LS (15 dyn/cm^2) in the growth medium by rotating a Teflon cone (0.5° cone angle) as described previously. To mimic unstable shear conditions in vivo, endothelial cells were exposed to OS with directional changes of flow at 1 Hz cycle (±5 dyn/cm^2) by rotating the cone back-and-forth using a stepping motor (Servo Motor) and a computer program (DC Motor Company, Atlanta, Ga.). In some studies, 5 dyn/cm^2 unidirectional LS was used for comparison to OS (±5 dyn/cm^2).
as §1
For orientation: In flow cytometry, cells or beads pass a laser one at a time.

The subject of experiment [1] is MAE-wt cells. Kind of experiment: O2− assay by electron spin resonance spectroscopy with CMH spin probe. Type of experiment: cell-based, mouse. Particulars: MAE-wt cells, BMP4 200 ng/ml for 18 hrs, SOD-inhibitable CM signal. The protocol:
O2^− Assay: O2^− production was determined by electron spin resonance spectroscopy using methoxycarbonyl-2,2,5,5-tetramethyl-pyrrolidine (CMH) as a spin probe in the presence or absence of PEG-superoxide dismutase (PEG-SOD; 50 U/ml) to quantify the SOD-inhibitable portions of CM.
In FIG. 10A immediately following treatment of MAE wt cells with BMP4 (200 ng/ml) for 18 hrs, cells were trypsinized and reconstituted in Krebs-Hepes buffer. Equal number of cells was incubated with a spin trap CMH in the presence or absence of PEG-SOD (50 U/mL). The specific O2^− production was calculated by subtracting SOD-inhibitable portions from total O2^− production as determined by following CM production (mean±SEM, n=3, *p<0.05).

A further experiment deals with NF-κB. Description: NF-κB assay with NF-κB-SEAP reporter construct. The format is cell-based. Particulars: NF-κB-SEAP co-transfected with BMP4 vector vs empty vector. The protocol: NF-κB assay: NF-κB activity was determined by using a NF-κB reporter construct, NF-κB-SEAP vector (lug, Clontech) expressing a secreted form of placental alkaline phosphatase driven by […] sequences in tandem. This construct was co-transfected with 0.5 μg of either pAdTrack BMP4 or empty vector control using Lipofectamine 2000. Six hours post transfection, conditioned media were centrifuged, heat-treated at 65° C. (to inactivate endogenous alkaline phosphatase) for 30 min, and followed by chemiluminescence alkaline phosphatase assay according to the manufacturer's instructions.
In this study, NF-κB-SEAP construct expressing a secreted form of placental alkaline phosphatase driven by 4 κB sequences in tandem was co-transfected with either BMP4 vector or empty vector control by a Lipofectamine method used above (FIG. 5F).

The subject of experiment [2] is MAE-wt cells. Description: H2O2 assay by oxidation of DCF-DA. Type of experiment: cell-based, mouse. Particulars: BMP4 18 hrs. The protocol: H2O2 assay: Cells grown in 6-well plates were treated with BMP4 or vehicle control for 18 hrs in the presence or absence of cell-permeable polyethylene glycol (PEG)-catalase (100 U/ml). Cells were then washed once with Hepes buffered saline solution (HBSS) followed by incubation with 7.5 μg/ml 2′, 7′-dichlorofluorescein diacetate (DCF-DA, Molecular Probes) in HBSS for 1 hr at 37 C° in the dark. Cells were washed with HBSS, incubated further for an additional 40 min in HBSS, and the DCF fluorescence intensities were measured in a Cytofluor Multi-Well plate reader (excitation at 475 nm and emission at 525 nm).
In addition, BMP4 stimulated production of H2O2 by 70% above control as determined by oxidation of DCF-DA (FIG. 10B). […] The cells were washed, incubated with DCF-DA, and the fluorescent intensities determined by fluorometry. Shown is a mean±SEM (n=3, p<0.05). In this assay, a redox cycling menadione (10 μM) was used as positive control (data not shown).

Experimental findings from patent US20060276385A1, “Anti-inflammatory agents and methods of their use” (priority 2003, published 2006) are described below.

With BMP4, in the experiment with VCAM-1 (FIG. 5E study, p>0.05, n=3), the “effect on VCAM-1” value was “marginal at best and not significant”. Also, the “effect on surface expression of VCAM-1” value in the experiment with VCAM-1 (HAEC, FACS, TNF-α 100 U/ml for 2 hr as positive control) is “neither OS nor BMP4 had any effect”. Also, in the experiment on ICAM-1 (HAEC transfected with BMP4 vector (Lipofectamine)), the “ICAM-1 expression above vector control cells” value is 3 to 4 fold. In the experiment on ICAM-1 (HAEC, BMP4 overexpression (transfection)), the “ICAM-1 expression above empty vector control” value turned out to be 84%. For the same substance, the “O2− production above control” value in the experiment on MAE-wt cells [1] worked out at 2.9 fold. Besides, the “NF-κB activity above controls” value in the experiment with NF-κB is “more than 3 fold”. The “production of H2O2 above control” value in the experiment with MAE-wt cells [2] was determined as 70%.
